The assay is described as follows: Inhibition of electron transport protein complex 3 in glioma initiating cells assessed as increase in cell death at 50 uM after 48 hrs relative to control. In kind it is cell-based.

Experimental findings from ChEMBL document CHEMBL2203188, “Preparation of N-(Hetero)cyclyl Benzamides as Inhibitors of the Activity of Complex III of the Mitochondrial Electron Transport Chain: Patent Highlight” (ACS Med Chem Lett, 2012) are described below.

The structures appear in SMILES notation. A value given as a limit tells only on which side of the number the result lay.

With `O=CNc1cccc(C(=O)NC2CCCCCCCC2)c1O`, the fold change (FC) is above 1.2.
